# Test results taken from patent publication US4410525A, “Alkoxy pyrazole derivatives and compositions” (Establissements Nativelle S.A., priority 1981, dated 1983).
# Where two headings read alike, the source gives them in different places.
# Legend:
# rabbit cornea = experiment: Local contact anesthesia on the rabbit cornea; type: in vivo; conditions: solution at 0.25% or 1% by weight, eyewash instillation
# Source text: For example, the derivatives described in Examples 2, 3, 4, 6, 7 and 9 are local anesthetics (100% anesthesia) in a solution at 0.25% or 1% by weight.
# [1] = test system: anoxic ventricular fibrillation in mice; experiment: Cardiac antifibrillatory activity on the mouse (Lawson test); type: in vivo; conditions: ip, intraperitoneal, 10 minutes before chloroform, read-out: ED 50 (protects half the mice against anoxic ventricular fibrillation)
# Protocol: Cardiac antifibrillatory activity of the derivatives of the invention has been verified on the mouse using the Lawson test, in accordance with the method described by J. W. Lawson, J. Pharmacol. Exp. Therp. 160, 22-31 (1968), and C. Narcisse et al., Ann. Pharm. Fr. 37, 325-330 (1979).
# The mice (20 per dose) received an intraperitoneal injection of the derivative 10 minutes before being placed in a chloroform saturated atmosphere. As soon as respiratory arrest occurred, the thorax was opened (5 to 10 seconds) and the state of the heart was checked: presence or absence of ventricular fibrillation. The efficacy dose 50 (ED 50) of the derivative being studied is the dose which protects half the mice against anoxic ventricular fibrillation.
# [2] = test system: isolated guinea pig auricle; experiment: Maximum stimulation frequency test on isolated guinea pig auricle; conditions: Cavia porcellus; 10 mg/l; read-out: Δ% MFS (decrease of the maximum frequency followed)
# Protocol: The maximum frequency test carried out studied the maximum stimulation frequency which can cause contraction of an isolated guinea pig auricle placed in a solution containing a derivative of the invention. The measurement was carried out before (control period) and then after introduction of the derivative into the solution.
# [3] = test system: ventricular arrhythmias induced by aconitine in the anesthetized rat; experiment: Antiarrhythmic test with aconitine on the rat; type: in vivo
# Protocol: The derivatives of the invention were used in the test with aconitine on the rat. For this test, the anesthetized rat was intoxicated by an intravenous perfusion of aconitine (solution of aconitine nitrate: 15 mg/l; speed of perfusion: 0.4 ml/min) while its electrocardiogram was recorded permanently. During perfusion at constant speed, the time necessary for the appearance of ventricular arrhythmias, successively ventricular extrasystoles (ESV), ventricular tachycardium (TV) and ventricular fibrillation (FV) was measured.
# The animals were divided into a control group (untreated) and treated group (different doses). The results are expressed as a percentage of prolonging the time of the appearance of the arrhythmias in the treated groups in relation to the control group. This prolongation of arrhythmia appearance time therefore corresponds to myocardiac protection against the arrhythmic effects of aconitine.
# [4] = Acute toxicity (lethal dose 50) in the mouse; conditions: in vivo
# Source text: The acute toxicity of the deriatives of the invention were studied by oral administration (P.O) to the mouse (10 animals, 5 males and 5 females per dose) and calculation of the lethal dose 50 (LD 50) in accordance with the method of Litchfield and Wilcoxon (J. Pharmacol., 96, 99-113 (1949)). Table 1 gives the LD 50 values of the derivatives of the invention.
# In certain cases, the LD 50 was also studied after intraperitoneal injection (I.P.) of the derivatives.
# anesthetized dog = experiment: Hemodynamic effects on the anesthetized dog; type: in vivo; conditions: for (dp/dt)l/p, percentage of variation / Cardiac flow, percentage of variation / Cardiac frequency, percentage of variation / Contraction force of the myocardium, percentage of variation / Systolic arterial pressure, percentage of variation / Systolic volume, percentage of variation: Example 2 series, vs pretreatment
# Protocol: Cardiovascular tolerance was studied on the isolated guinea pig auricle, on the anesthetized rat and on the anesthetized dog.
# On the anesthetized dog, the results obtained with respect to hemodynamic tolerance are summarized in Table 2 below which indicates the percentages of variation of the hemodynamic parameters in relation to the pre-treatment control period for the derivatives of Examples 2 and 4.
# The parameters were recorded by means of:
# Catheters connected to pressure sensors (arterial pressure, left ventricular pressure and its first derivative dp/dt);
# Electromagnetic flowmeter on the aorta (aortic flow);
# Strain gauge placed on the left ventricular myocardium (force of myocardiac contraction).
# The derivatives were injected intraveneously, one dose approximately every 30 minutes and their effects were measured 20 minutes after the completion of the injection (length of the injection 2 minutes).
# [5] = read-out: Prolongation of time of appearance of ventricular extrasystoles (ESV)
# [6] = read-out: Prolongation of time of appearance of ventricular fibrillation (FV)
# [7] = read-out: Prolongation of time of appearance of ventricular tachycardium (TV)
# [8] = oral (P.O.), 5 males and 5 females per dose, read-out: LD 50 P.O.
# [9] = ip, intraperitoneal (I.P.), read-out: LD 50 I.P.
# [10] = anesthetized dog, i.v., cumulative dose
smiles,measurement,setting,value
"Clc1ccc(-c2cc(OCCCN3CCCCC3)[nH]n2)cc1 [Example 3, 3-p-Chlorphenyl-5-piperidinopropoxy-pyrazole]",local anesthesia,rabbit cornea,100%
same,ED50,[1],35 mg/kg
same,inhibition at 10 µg/mL,[2],53%
same,change in vivo at 10 mg/kg,[3]; [5],6%
same,change in vivo at 10 mg/kg,[3]; [6],46%
same,change in vivo at 10 mg/kg,[3]; [7],28%
same,LD50,[4]; [8],700 mg/kg
Cc1c(-c2ccc(Cl)cc2)n[nH]c1OCCCN(C)C [Example 17],inhibition at 10 µg/mL,[2],32%
same,LD50,[4]; [9],250 to 500 mg/kg
same,LD50,[4]; [8],500 to 1000 mg/kg
c1ccc(-c2cc(OCCCN3CCCCC3)[nH]n2)cc1 [Example 13],inhibition at 10 µg/mL,[2],44%
same,LD50,[4]; [8],125 to 250 mg/kg
Cc1c(-c2ccccc2)n[nH]c1OCCCN(C)C [Example 15],inhibition at 10 µg/mL,[2],40%
same,LD50,[4]; [8],500 to 1000 mg/kg
"c1ccc(-c2cc(OCCN3CCOCC3)[nH]n2)cc1 [Example 5, 3-Phenyl-5-morpholinoethoxy-pyrazole]",ED50,[1],79 mg/kg
same,inhibition at 10 µg/mL,[2],12%
same,LD50,[4]; [8],1000 mg/kg
"Cc1c(-c2ccccc2)n[nH]c1OCCN1CCCC1 [Example 2, 3-Phenyl-4-methyl-5-pyrrolidinoethoxy-pyrazole]",local anesthesia,rabbit cornea,100%
same,"(dp/dt)l/p, percentage of variation","anesthetized dog; i.v., dose 0.5 mg/kg",0%
same,"Cardiac flow, percentage of variation","anesthetized dog; i.v., dose 0.5 mg/kg",0%
same,"Cardiac frequency, percentage of variation","anesthetized dog; i.v., dose 0.5 mg/kg",0%
same,"Contraction force of the myocardium, percentage of variation","anesthetized dog; i.v., dose 0.5 mg/kg",0%
same,"Systolic arterial pressure, percentage of variation","anesthetized dog; i.v., dose 0.5 mg/kg",+4%
same,"Systolic volume, percentage of variation","anesthetized dog; i.v., dose 0.5 mg/kg",0%
same,"(dp/dt)l/p, percentage of variation","anesthetized dog; i.v., dose +1 mg/kg",-7%
same,"Cardiac flow, percentage of variation","anesthetized dog; i.v., dose +1 mg/kg",-5%
same,"Cardiac frequency, percentage of variation","anesthetized dog; i.v., dose +1 mg/kg",-8%
same,"Contraction force of the myocardium, percentage of variation","anesthetized dog; i.v., dose +1 mg/kg",0%
same,"Systolic arterial pressure, percentage of variation","anesthetized dog; i.v., dose +1 mg/kg",0%
same,"Systolic volume, percentage of variation","anesthetized dog; i.v., dose +1 mg/kg",+3%
same,"(dp/dt)l/p, percentage of variation","anesthetized dog; i.v., dose +3 mg/kg",-30%
same,"Cardiac flow, percentage of variation","anesthetized dog; i.v., dose +3 mg/kg",-5%
same,"Cardiac frequency, percentage of variation","anesthetized dog; i.v., dose +3 mg/kg",-8%
same,"Contraction force of the myocardium, percentage of variation","anesthetized dog; i.v., dose +3 mg/kg",-20%
same,"Systolic arterial pressure, percentage of variation","anesthetized dog; i.v., dose +3 mg/kg",0%
same,"Systolic volume, percentage of variation","anesthetized dog; i.v., dose +3 mg/kg",+3%
same,"(dp/dt)l/p, percentage of variation","anesthetized dog; i.v., dose +5 mg/kg",-30%
same,"Cardiac flow, percentage of variation","anesthetized dog; i.v., dose +5 mg/kg",-20%
same,"Cardiac frequency, percentage of variation","anesthetized dog; i.v., dose +5 mg/kg",-8%
same,"Contraction force of the myocardium, percentage of variation","anesthetized dog; i.v., dose +5 mg/kg",-20%
same,"Systolic arterial pressure, percentage of variation","anesthetized dog; i.v., dose +5 mg/kg",-8%
same,"Systolic volume, percentage of variation","anesthetized dog; i.v., dose +5 mg/kg",-12%
same,"(dp/dt)l/p, percentage of variation","anesthetized dog; i.v., first dose of +10 mg/kg",-38%
same,"Cardiac flow, percentage of variation","anesthetized dog; i.v., first dose of +10 mg/kg",-37%
same,"Cardiac frequency, percentage of variation","anesthetized dog; i.v., first dose of +10 mg/kg",-8%
same,"Contraction force of the myocardium, percentage of variation","anesthetized dog; i.v., first dose of +10 mg/kg",-10%
same,"Systolic arterial pressure, percentage of variation","anesthetized dog; i.v., first dose of +10 mg/kg",-12%
same,"Systolic volume, percentage of variation","anesthetized dog; i.v., first dose of +10 mg/kg",-31%
same,"(dp/dt)l/p, percentage of variation","anesthetized dog; i.v., second dose of +10 mg/kg",-46%
same,"Cardiac flow, percentage of variation","anesthetized dog; i.v., second dose of +10 mg/kg",-45%
same,"Cardiac frequency, percentage of variation","anesthetized dog; i.v., second dose of +10 mg/kg",-8%
same,"Contraction force of the myocardium, percentage of variation","anesthetized dog; i.v., second dose of +10 mg/kg",-20%
same,"Systolic arterial pressure, percentage of variation","anesthetized dog; i.v., second dose of +10 mg/kg",-20%
same,"Systolic volume, percentage of variation","anesthetized dog; i.v., second dose of +10 mg/kg",-40%
same,maximum decrease of force of ventricular myocardiac contractions,anesthetized dog; after injection of 4.5 mg/kg to 29 mg/kg,-20%
same,Cardiac frequency (result in words),"anesthetized dog; anesthetized dog, i.v.",drops moderately
same,Systolic arterial pressure (result in words),"anesthetized dog; anesthetized dog, i.v.",drops moderately
same,force of ventricular myocardiac contractions (result in words),"anesthetized dog; anesthetized dog, i.v.",decreases
same,cumulative dose after which the decrease of systolic arterial pressure appears,anesthetized dog; [10],> 4.5 mg/kg
same,cumulative dose at which a 20% drop of cardiac flow is reached,anesthetized dog; [10],greater than 9 mg/kg
same,inhibition at 10 µg/mL,[2],56%
same,change in vivo at 10 mg/kg,[3]; [5],32%
same,change in vivo at 10 mg/kg,[3]; [6],44%
same,change in vivo at 10 mg/kg,[3]; [7],30%
same,LD50,[4]; [8],500 mg/kg
Cc1c(-c2ccc(Cl)cc2)n[nH]c1OCCN1CCCC1 [Example 18],inhibition at 10 µg/mL,[2],45%
same,change in vivo at 10 mg/kg,[3]; [5],2%
same,change in vivo at 10 mg/kg,[3]; [6],0%
same,change in vivo at 10 mg/kg,[3]; [7],6%
same,LD50,[4]; [8],750 mg/kg
Cc1c(-c2ccccc2)n[nH]c1OCCN1CCCCC1 [Example 11],ED50,[1],42.5 mg/kg
same,inhibition at 10 µg/mL,[2],52%
same,change in vivo at 10 mg/kg,[3]; [5],10%
same,change in vivo at 10 mg/kg,[3]; [6],18%
same,change in vivo at 10 mg/kg,[3]; [7],11%
same,LD50,[4]; [9],184 mg/kg
same,LD50,[4]; [8],250 to 500 mg/kg
